Reference: ChEMBL document CHEMBL1201862, “PubChem BioAssay data set” (2004)
Active and inactive are the calls of the source.

Key:
[1] = Luminescence Cell-Based Dose Retest to Confirm Inhibitors of Cancer Stem Cells. [Related pubchem assays (depositor defined):AID2717, AID2721]; assay type: functional; conditions: Homo sapiens
Cytochrome P450 2C19 = Cytochrome P450 2C19 (Homo sapiens, UniProt P33261); assay: Cytochrome panel assay with activity outcomes. Panel member name: p450-cyp2c19 Compounds with AC50 equal or less than 10 uM are considered active; assay type: functional; conditions: read-out: AC50
Cytochrome P450 2C9 = Cytochrome P450 2C9 (Homo sapiens, UniProt P11712)
Cytochrome P450 3A4 = Cytochrome P450 3A4 (Homo sapiens, UniProt P08684);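 also: CYP3A4 tested as one member of a cytochrome P450 panel screen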
Paired box protein Pax-8 = Paired box protein Pax-8 (Homo sapiens, UniProt Q06710); assay: inhibitors of PAX8-driven TPO luciferase reporter, dose response, RMG-I cells, cherry-pick (AID 687027); assay type: functional, cell-based;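 also: luciferase reporter driven by Pax8 target thyroperoxidase promoter measured by SteadyGlo luminescence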
[2] = target: T1, Replicative DNA helicase DnaB (Mycobacterium tuberculosis, UniProt P9WMR3); assay: DnaB intein splicing inhibitors, dose response, biochemical, cell-free fluorescence (AID 449749); assay type: functional
T1 sequence (P9WMR3 whole entry): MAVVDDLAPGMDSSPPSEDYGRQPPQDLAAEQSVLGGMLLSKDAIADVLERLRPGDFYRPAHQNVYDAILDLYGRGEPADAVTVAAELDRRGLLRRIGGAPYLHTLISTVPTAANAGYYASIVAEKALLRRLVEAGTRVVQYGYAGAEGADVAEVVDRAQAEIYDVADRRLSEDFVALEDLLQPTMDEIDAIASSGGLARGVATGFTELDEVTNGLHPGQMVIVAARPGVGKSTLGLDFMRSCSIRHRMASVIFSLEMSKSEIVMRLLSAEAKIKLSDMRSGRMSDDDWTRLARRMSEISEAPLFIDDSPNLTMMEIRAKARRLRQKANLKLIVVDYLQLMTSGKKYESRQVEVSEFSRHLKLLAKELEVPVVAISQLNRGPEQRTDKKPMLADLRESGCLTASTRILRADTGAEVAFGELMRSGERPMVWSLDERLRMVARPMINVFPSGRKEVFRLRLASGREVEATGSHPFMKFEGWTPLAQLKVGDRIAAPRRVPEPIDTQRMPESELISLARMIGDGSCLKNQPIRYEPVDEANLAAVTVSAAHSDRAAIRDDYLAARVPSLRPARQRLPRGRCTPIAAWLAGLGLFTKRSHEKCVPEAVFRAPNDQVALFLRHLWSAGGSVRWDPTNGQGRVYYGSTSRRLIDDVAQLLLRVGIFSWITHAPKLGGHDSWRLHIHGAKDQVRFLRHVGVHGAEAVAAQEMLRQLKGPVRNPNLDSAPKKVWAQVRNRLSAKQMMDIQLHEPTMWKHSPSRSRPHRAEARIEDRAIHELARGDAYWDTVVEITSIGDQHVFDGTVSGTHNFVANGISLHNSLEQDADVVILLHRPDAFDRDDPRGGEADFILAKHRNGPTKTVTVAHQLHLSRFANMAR

Protein RecA = target: T2, Protein RecA (Mycobacterium tuberculosis, UniProt P9WHJ3); assay: Fluorescence Cell-Free Homogeneous Dose Retest to Identify Inhibitors of RecA-Intein Splicing Activity. [Related pubchem assays (depositor defined):AID2097, AID2223, AID489010, AID492950]; assay type: functional
T2 sequence (P9WHJ3 whole entry): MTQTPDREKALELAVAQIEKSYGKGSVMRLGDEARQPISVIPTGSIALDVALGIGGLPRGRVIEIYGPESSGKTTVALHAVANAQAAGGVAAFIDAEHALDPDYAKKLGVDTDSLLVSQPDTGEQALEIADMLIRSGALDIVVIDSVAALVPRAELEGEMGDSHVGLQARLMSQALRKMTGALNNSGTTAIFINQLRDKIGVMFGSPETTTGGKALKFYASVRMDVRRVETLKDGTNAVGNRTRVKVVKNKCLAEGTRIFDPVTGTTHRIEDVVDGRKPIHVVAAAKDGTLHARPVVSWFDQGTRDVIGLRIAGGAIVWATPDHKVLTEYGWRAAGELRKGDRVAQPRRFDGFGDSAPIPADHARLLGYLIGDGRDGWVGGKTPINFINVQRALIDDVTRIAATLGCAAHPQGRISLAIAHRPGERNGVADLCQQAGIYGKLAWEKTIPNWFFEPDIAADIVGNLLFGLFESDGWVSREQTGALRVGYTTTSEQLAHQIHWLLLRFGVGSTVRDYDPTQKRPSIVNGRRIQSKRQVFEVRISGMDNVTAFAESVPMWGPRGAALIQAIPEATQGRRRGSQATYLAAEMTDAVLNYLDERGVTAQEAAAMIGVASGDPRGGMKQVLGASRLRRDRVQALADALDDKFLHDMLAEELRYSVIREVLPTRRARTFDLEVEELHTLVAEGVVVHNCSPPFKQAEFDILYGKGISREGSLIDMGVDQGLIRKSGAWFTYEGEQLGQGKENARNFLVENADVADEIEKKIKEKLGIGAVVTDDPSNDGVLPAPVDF

Cytochrome P450 1A2 = target: T3, Cytochrome P450 1A2 (Homo sapiens, UniProt P05177);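 also: PubChem cytochrome P450 panel assay, CYP1A2 panel member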
T3 sequence (P05177 whole entry): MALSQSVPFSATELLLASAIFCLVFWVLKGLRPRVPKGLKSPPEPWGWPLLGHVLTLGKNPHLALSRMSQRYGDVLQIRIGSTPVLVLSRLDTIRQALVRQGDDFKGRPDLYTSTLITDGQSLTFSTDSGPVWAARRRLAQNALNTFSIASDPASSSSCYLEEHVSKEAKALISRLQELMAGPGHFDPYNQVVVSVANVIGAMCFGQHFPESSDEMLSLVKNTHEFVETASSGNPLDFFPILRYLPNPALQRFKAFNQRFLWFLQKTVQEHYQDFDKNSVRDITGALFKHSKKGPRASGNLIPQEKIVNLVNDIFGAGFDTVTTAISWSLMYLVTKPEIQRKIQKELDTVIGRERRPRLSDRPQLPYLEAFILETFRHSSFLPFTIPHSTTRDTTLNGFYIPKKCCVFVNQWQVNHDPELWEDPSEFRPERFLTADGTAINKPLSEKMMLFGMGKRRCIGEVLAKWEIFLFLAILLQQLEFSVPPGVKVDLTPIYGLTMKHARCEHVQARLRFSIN

[3] = target: T4, Heat shock factor protein 1 (Mus musculus, UniProt P38532); assay: HSF1 potentiators in luciferase reporter cells, confirmation, cell-based, NIH3T3, luminescence, dose retest (AID 435004); assay type: functional;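 also: stress induced by proteasome inhibitor MG132 added 30 min after compound; luciferase reporter driven by HSF1 response element in NIH3T3 cells; actives raise luminescence as potentiators of the MG132 stress response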
T4 sequence (P38532 whole entry): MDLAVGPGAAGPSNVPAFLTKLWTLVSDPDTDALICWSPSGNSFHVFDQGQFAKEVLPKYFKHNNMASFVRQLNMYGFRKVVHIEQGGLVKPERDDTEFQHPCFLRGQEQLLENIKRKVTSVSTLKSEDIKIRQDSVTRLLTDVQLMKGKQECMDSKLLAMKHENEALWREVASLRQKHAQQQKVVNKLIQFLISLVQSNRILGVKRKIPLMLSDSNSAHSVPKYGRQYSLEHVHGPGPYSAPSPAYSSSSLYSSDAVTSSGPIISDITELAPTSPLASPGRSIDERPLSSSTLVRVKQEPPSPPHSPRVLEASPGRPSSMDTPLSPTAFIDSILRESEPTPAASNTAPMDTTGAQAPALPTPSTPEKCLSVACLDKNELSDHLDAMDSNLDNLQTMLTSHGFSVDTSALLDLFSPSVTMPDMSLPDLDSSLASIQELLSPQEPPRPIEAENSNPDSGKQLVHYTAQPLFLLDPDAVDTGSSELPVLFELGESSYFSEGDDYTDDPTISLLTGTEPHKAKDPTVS

[4] = inhibitors of intracellular T. cruzi replication, confirmation, NIH3T3 host cells, beta-gal luminescence (AID 2044); assay type: functional, cell-based;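 also: intracellular parasites grown in NIH/3T3 mouse fibroblasts as host cells; luminescent beta-galactosidase reporter signal from transgenic T. cruzi replicating inside host cells; inhibitors lower the luminescence signal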
[5] = cytotoxicity toward NIH3T3 fibroblasts, dose response, counter-screen, cell-based, ATP luminescence, mouse fibroblasts (AID 2010); assay type: functional;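 also: cells exposed to compound for about 90 hours before reading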

Cytochrome P450 2C19, sequence (P33261 whole entry): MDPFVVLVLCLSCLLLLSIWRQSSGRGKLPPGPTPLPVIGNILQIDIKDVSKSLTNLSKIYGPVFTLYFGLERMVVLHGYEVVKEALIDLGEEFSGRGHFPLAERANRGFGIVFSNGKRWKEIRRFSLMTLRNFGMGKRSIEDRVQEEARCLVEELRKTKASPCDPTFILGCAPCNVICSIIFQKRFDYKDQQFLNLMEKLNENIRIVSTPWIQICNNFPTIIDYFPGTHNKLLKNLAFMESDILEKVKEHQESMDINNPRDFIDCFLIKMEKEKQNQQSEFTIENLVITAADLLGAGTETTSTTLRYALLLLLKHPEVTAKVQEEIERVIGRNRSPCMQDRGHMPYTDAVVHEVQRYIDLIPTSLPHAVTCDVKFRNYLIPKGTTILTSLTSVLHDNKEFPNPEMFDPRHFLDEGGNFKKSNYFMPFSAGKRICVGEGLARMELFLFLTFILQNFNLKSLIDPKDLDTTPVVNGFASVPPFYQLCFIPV
Cytochrome P450 2C9, sequence (P11712 whole entry): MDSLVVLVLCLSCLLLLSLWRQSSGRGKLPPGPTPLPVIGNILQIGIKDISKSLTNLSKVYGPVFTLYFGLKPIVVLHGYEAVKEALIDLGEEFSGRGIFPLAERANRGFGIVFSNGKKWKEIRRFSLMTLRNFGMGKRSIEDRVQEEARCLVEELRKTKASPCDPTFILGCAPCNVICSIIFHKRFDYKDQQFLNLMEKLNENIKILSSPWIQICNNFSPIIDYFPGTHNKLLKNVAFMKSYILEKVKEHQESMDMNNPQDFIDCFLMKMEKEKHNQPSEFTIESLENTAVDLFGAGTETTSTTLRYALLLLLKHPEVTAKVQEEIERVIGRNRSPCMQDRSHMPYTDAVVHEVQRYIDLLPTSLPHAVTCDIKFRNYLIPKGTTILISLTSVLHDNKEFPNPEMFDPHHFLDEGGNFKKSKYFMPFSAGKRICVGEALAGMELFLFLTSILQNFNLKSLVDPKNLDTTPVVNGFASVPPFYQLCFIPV
Paired box protein Pax-8, sequence (Q06710 whole entry): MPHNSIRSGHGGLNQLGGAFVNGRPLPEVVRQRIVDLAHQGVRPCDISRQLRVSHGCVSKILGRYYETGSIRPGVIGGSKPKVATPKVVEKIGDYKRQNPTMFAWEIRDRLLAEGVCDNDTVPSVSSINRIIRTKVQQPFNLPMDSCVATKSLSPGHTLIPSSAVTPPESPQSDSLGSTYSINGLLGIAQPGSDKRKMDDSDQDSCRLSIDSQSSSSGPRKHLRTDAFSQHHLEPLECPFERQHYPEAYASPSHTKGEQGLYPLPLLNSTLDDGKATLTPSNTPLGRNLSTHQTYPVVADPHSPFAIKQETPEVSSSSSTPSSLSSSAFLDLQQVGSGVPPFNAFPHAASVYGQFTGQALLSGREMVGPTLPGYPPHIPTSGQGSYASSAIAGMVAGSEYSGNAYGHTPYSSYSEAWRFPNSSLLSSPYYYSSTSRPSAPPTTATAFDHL
Cytochrome P450 3A4, sequence (P08684 whole entry): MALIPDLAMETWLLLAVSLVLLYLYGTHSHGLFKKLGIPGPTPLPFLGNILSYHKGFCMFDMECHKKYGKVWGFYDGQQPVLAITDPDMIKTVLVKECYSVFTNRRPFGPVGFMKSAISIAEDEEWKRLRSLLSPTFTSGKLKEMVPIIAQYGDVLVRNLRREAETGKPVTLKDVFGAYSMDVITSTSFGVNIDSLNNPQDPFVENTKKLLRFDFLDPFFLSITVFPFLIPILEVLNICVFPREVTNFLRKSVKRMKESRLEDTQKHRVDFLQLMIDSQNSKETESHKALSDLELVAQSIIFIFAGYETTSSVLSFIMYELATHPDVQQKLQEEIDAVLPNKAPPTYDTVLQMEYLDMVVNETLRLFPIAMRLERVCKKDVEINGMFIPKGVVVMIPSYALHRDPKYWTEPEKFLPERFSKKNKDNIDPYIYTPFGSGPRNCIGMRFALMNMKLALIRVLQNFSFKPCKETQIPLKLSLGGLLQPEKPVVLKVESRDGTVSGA

COCCN(C(=O)C(C)C)c1nnc(-c2ccc(C(C)(C)C)cc2)s1
AC50 [1]: 2.42 µM (active)

CC1(C)Cc2ccccc2C(/C=C(\O)c2ccccc2)=N1
AC50 [1]: 1.97 µM (active)

Cc1cc(C)c(S(=O)(=O)N2CCN(c3ccc([N+](=O)[O-])c(NCc4ccco4)c3)CC2)c(C)c1
AC50 (Cytochrome P450 2C19): 0.708 µM (inconclusive)
AC50 (Cytochrome P450 2C9): 0.562 µM (inconclusive)

CC(C)NC(=O)N1CC[C@@]2(CCCN(S(C)(=O)=O)C2)C1
AC50 (Cytochrome P450 2C19): 39.8 µM (inconclusive)
AC50 (Cytochrome P450 2C9): 25.1 µM (inconclusive)

COc1cc(C(=O)OCC(=O)Nc2cc(C)on2)cc(OC)c1OC
AC50 (Cytochrome P450 3A4): 15.8 µM (inconclusive)
AC50 (Cytochrome P450 2C9): 0.0447 µM (inconclusive)

COCCCNC(=O)c1c(NC(=O)c2cccs2)sc2c1CCCC2
AC50 (Cytochrome P450 2C19): 4.47 µM (inconclusive)
AC50 (Cytochrome P450 2C9): 0.562 µM (inconclusive)

CCc1cc2c(=O)c(-c3nc4ccccc4[nH]3)coc2cc1OC(=O)N1CCOCC1
AC50 (Cytochrome P450 3A4): 5.01 µM (inconclusive)
AC50 (Cytochrome P450 2C9): 8.91 µM (inconclusive)

COC(=O)[C@@]12C[C@@H](CC(=O)N3CCN(C(=O)c4ccco4)CC3)C(=O)N(Cc3ccccc3)C1=CCC(C)(C)C2
AC50 (Paired box protein Pax-8): 1.81 µM (active)

CCOCCCn1cnc2c3ccc(OC)cc3nc-2c1O
AC50 (Cytochrome P450 2C9): 39.8 µM (inconclusive)

O=C(CCCN1C(=O)/C(=C\c2ccccc2)SC1=S)Nc1ccc(O)cc1C(=O)O
AC50 [2]: 15.4 µM (active)
EC50 (Protein RecA): 15.1 µM (active)

COc1ccc2[nH]cc(CCNc3ccnc(-c4ccccc4Cl)n3)c2c1
AC50 (Cytochrome P450 2C9): 1 µM (inconclusive)

Cc1n[nH]c2c1C(c1ccc(Cl)cc1)C(C#N)=C(N)O2 (stereo unspecified)
AC50 [2]: 9.8 µM (active)
EC50 (Protein RecA): 6.1 µM (active)

COc1ccc(NC(=O)Nc2ccc3c(c2)C(=O)N([C@@H](C)CO)C[C@@H](C)[C@@H](CN(C)Cc2ccc(C(F)(F)F)cc2)O3)cc1
AC50 (Paired box protein Pax-8): 13.9 µM (active)

Nc1nc(S)nc2c1C1(CCCC1)Cc1ccccc1-2
AC50 (Cytochrome P450 2C19): 11.2 µM (inconclusive)
AC50 (Cytochrome P450 2C9): 0.355 µM (inconclusive)

O=[N+]([O-])c1ccc(N/N=C/c2sc(N3CCOCC3)nc2-c2ccccc2)c(S(=O)(=O)Nc2ccc(Cl)cc2)c1
AC50 (Paired box protein Pax-8): 1.99 µM (active)

CCC#CCOCC(=S)Nc1ccccc1
AC50 (Cytochrome P450 1A2): 15.8 µM (inconclusive)

COc1ccc(Br)cc1[C@H]1[C@H]2C=CC[C@@H](C)[C@@H]2C(=O)N1Cc1ccccc1
AC50 [2]: 2.46 µM (active)
EC50 (Protein RecA): 163 µM (active)

Cc1ccc2[nH]c(SCC(=O)Nc3cccc(S(=O)(=O)NC4=NCCCCC4)c3)nc2c1
EC50 [3]: > 260 µM (inactive)

COC(=O)CN1C(=O)S/C(=C/c2ccc(N3CCCCC3)o2)C1=O
AC50 (Cytochrome P450 2C19): 5.62 µM (inconclusive)
AC50 (Cytochrome P450 3A4): 15.8 µM (inconclusive)
AC50 (Cytochrome P450 2C9): 5.62 µM (inconclusive)

CCOC(=O)c1nc(O)c2ccccc2c1O
AC50 [2]: > 380 µM (inactive)
EC50 (Protein RecA): 5.23 µM (active)

Clc1ccc(CCNc2nc3ccccc3s2)cc1
AC50 (Cytochrome P450 2C9): 12.6 µM (inconclusive)

O=C(NCCN1Cc2ccccc2C1=O)c1cccs1
EC50 [3]: > 260 µM (inactive)

Cc1cc(C)n(Cc2ccc(Cl)cc2Cl)c(=O)c1S(=O)(=O)c1ccccc1
EC50 [3]: > 260 µM (inactive)

N#CCCn1c(=O)c(-c2cccs2)nc2cnc(OCc3ccccc3)nc21
AC50 (Cytochrome P450 2C9): 1.58 µM (inconclusive)

CCNc1ncc2nc(-c3ccccc3)c(=O)n(CCOC)c2n1
AC50 (Cytochrome P450 2C19): 31.6 µM (inconclusive)
AC50 (Cytochrome P450 3A4): 31.6 µM (inconclusive)
AC50 (Cytochrome P450 2C9): 20 µM (inconclusive)

O=C1CCN(Cc2ccccc2)N1
EC50 [3]: > 260 µM (inactive)

CCC(C)n1c(SCC(=O)NC(=O)Nc2ccc3c(c2)OCCO3)nc2ccccc2c1=O (stereo unspecified)
EC50 [4]: 2.2 µM (active)
EC50 [5]: > 60 µM (not active)
EC50 [3]: > 260 µM (inactive)

N#C/C(C(=O)NCc1ccccc1)=C1/N=C(NC(=O)c2ccco2)c2ccccc21
EC50 [3]: > 260 µM (inactive)

COc1cccc(Nc2ncc3nc(-c4ccccc4)c(=O)n(Cc4cccs4)c3n2)c1
AC50 (Cytochrome P450 1A2): 20 µM (inconclusive)

COCC(=O)O[C@]1(CCN(C)CCCc2nc3ccccc3[nH]2)CCc2cc(F)ccc2[C@@H]1C(C)C [MIBEFRADIL]
AC50 (Cytochrome P450 1A2): 31.6 µM (inconclusive)

Cc1oc(C(C)(C)C)cc1C(=O)Nc1cccc(/C=C/C(=O)O)c1
AC50 (Cytochrome P450 2C9): 4.47 µM (inconclusive)

COc1cc(C(c2c(C)n[nH]c2O)c2c(C)n[nH]c2O)cc(Br)c1OC
AC50 [2]: 0.756 µM (active)
EC50 (Protein RecA): 0.274 µM (active)

CCN(CC)C[C@@H]1CCCCN1CC(=O)N1c2ccccc2C(=O)Nc2cccnc21
AC50 (Cytochrome P450 1A2): 31.6 µM (inconclusive)

CC(C)c1n[nH]c2c1C(c1cccc(OC(=O)N3CCOCC3)c1)C(C#N)=C(N)O2 (stereo unspecified)
AC50 [2]: 33.4 µM (active)
EC50 (Protein RecA): 5.8 µM (active)

CN1C(=O)COc2c(C(=O)N[C@@H]3CN4CCC3CC4)cc(Cl)cc21
AC50 (Cytochrome P450 1A2): 39.8 µM (inconclusive)

Cc1ccc(S(=O)(=O)N2CCCCC2)cc1NC(=O)Cc1c[nH]c2ccccc12
AC50 (Paired box protein Pax-8): 19.5 µM (active)

Cc1cc(-c2ccc(C(C)C)c(S(=O)(=O)NCCN3CCC(C)CC3)c2)on1
EC50 [3]: > 260 µM (inactive)

Clc1ccccc1-c1nc(NCc2cccs2)c2ccccc2n1
AC50 (Cytochrome P450 2C9): 0.794 µM (inconclusive)
